Laboratory results as given in article PMC6835155, “Lessons from LIMK1 enzymology and their impact on inhibitor design” (Biochemical Journal, 2019).
Structures can show the parent of a compound that is named as a salt. Where two headings read alike, the source gives them in different places.

Columns and labels:
LIMK1KD [1] = target: T1, LIMK1KD (Homo sapiens, UniProt P53667); assay: Differential (dynamic) scanning fluorimetry (DSF) assay, LIMK1KD; format: binding; details: for ΔTm at 10 µM: read-out: TM Shift LIMK1 (K)
T1 construct: His6 (N, cleaved yes); made in house; host or cells: baculovirus; Sf9 for virus, TriEx insect cells for expression
T1 sequence (P53667 330-637): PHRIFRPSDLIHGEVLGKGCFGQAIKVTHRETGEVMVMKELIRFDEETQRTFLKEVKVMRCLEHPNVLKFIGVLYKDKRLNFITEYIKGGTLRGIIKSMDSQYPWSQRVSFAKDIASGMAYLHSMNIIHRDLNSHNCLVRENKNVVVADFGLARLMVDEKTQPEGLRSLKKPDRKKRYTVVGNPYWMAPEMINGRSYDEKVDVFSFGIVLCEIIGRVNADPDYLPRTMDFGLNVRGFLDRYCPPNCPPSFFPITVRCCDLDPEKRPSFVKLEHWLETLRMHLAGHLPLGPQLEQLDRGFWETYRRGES

LIMK1KD [2] = target: T1, LIMK1KD; assay: RapidFire mass spec kinase activity assay (CFL1 phosphorylation); format: biochemical; details: 40 nM LIMK1KD, 2 µM CFL1, 800 µM ATP, 60 min; read-out: LIMK1 IC50
LIMK2KD = target: T2, LIMK2KD (Homo sapiens, UniProt P53671); assay: Differential (dynamic) scanning fluorimetry (DSF) assay, LIMK2KD; format: binding; details: for ΔTm at 10 µM: read-out: TM Shift LIMK2 (K)
T2 construct: The cDNA coding for LIMK2 residues 330 to 632 was PCR amplified; His6 (N, cleaved yes); made in house; host or cells: baculovirus; Sf9 for virus, TriEx insect cells for expression
T2 sequence (P53671 330-632): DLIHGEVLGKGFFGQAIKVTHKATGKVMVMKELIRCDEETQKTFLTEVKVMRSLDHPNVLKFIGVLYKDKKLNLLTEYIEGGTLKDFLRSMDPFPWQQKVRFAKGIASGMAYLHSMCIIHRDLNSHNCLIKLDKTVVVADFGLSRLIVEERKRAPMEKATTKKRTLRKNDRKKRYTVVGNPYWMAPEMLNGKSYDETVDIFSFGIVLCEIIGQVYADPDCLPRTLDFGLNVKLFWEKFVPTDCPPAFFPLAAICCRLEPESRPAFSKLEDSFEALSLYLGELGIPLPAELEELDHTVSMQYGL

LIMK1 = details: cited from earlier work
[3] = 2 µM LIMK1KD, compound 10 µM, single shot
[4] = LIMK2KD, compound 10 µM, single shot
[5] = LIMK2KD, compound 10 µM, single shot, 10 µM

Molecule	ΔTm at 10 µM (LIMK1KD [1]; [3]) [°C]	ΔTm at 10 µM (LIMK2KD; [4]) [°C]	TM Shift LIMK1 (K) (LIMK1KD [1]; [3])	TM Shift LIMK2 (K) (LIMK2KD; [4])	further results
CNC(=O)c1cc(Oc2ccc(NC(=O)Nc3cc(C(C)(C)C)nn3-c3ccc4ncccc4c3)c(F)c2)ccn1 [DCC-2036 (Rebastinib), Rebastinib]	10	4.8	–	–	IC50 (LIMK1KD [2]): 75 nM
CC(C)(C)c1nc(-c2cccc(NS(=O)(=O)c3c(F)cccc3F)c2F)c(-c2ccnc(N)n2)s1 [Dabrafenib (GSK2118436), Dabrafenib]	10.3	11.1	10	–	IC50 (LIMK1KD [2]): 14 nM; TM Shift LIMK2 (K) (LIMK2KD; [5]): 11 K
Cc1c[nH]c2ncnc(N3CCC(CN)(C(=O)Nc4cccc(OC(=O)N(C)C)c4)CC3)c12 [LX-7101]	–	–	–	–	IC50 (LIMK1; read-out: LIMK1 IC50): 32 nM
Cn1cc(-c2[nH]c3cc(NC(=O)[C@H](N)C4CCCCC4)cc4c3c2C=NNC4=O)cn1 [PF-477736]	11.1	9	11	–	IC50 (LIMK1KD [2]): 4.4 nM
C[C@@H]1CCN(C(=O)CC#N)C[C@@H]1N(C)c1ncnc2[nH]ccc12 [Tofacitinib (CP-690550) Citrate, Tofacitinib]	-0.4	3.1	–	–	–
CCC(=O)N1CCN(c2ccc(-n3c(=O)ccc4cnc5ccc(-c6cnc7ccccc7c6)cc5c43)cc2C(F)(F)F)CC1 [Torin 1]	-0.2	3.1	–	–	–
Nc1ccc(-c2ccc3ncc4ccc(=O)n(-c5cccc(C(F)(F)F)c5)c4c3c2)cn1 [Torin 2]	–	–	-1.1	-0.7	–
CC(=O)Nc1cccc(-n2c(=O)n(C3CC3)c(=O)c3c(Nc4ccc(I)cc4F)n(C)c(=O)c(C)c32)c1 [Trametinib (GSK1120212), Trametinib]	-0.2	0	–	–	–
CC(C)(C)c1cc(C=C(C#N)C#N)cc(C(C)(C)C)c1O [Tyrphostin 9]	–	–	3.5	6.3	–
CC(C)(C)c1cc(/C=C(\C#N)C(N)=S)cc(C(C)(C)C)c1O [Tyrphostin AG 879]	0.1	1.2	–	–	–
COc1cc2ncc(-c3ccccc3)nc2cc1OC [Tyrphostin AG 1296]	–	–	0.0	-1.3	–
CCO.N#CC(=C(/N)Sc1ccccc1N)/C(C#N)=C(\N)Sc1ccccc1N [U0126-EtOH]	–	–	-1.1	2.4	–
CN[C@@H]1C[C@H]2O[C@@](C)([C@@H]1OC)n1c3ccccc3c3c4c(c5c6ccccc6n2c5c31)C(=O)N[C@H]4O [UCN-01]	–	–	1.2	0.7	–
CS(=O)(=O)c1ccc(-c2cnc(N)c(C(=O)Nc3ccccc3)n2)cc1 [VE-821]	0.8	1.5	–	–	–
CNCc1ccc(-c2cc(-c3nc(-c4ccc(S(=O)(=O)C(C)C)cc4)cnc3N)on2)cc1 [VE-822]	-0.5	0.5	–	–	–
Cc1cnc(Nc2ccc(F)cc2Cl)nc1-c1c[nH]c(C(=O)N[C@H](CO)c2cccc(Cl)c2)c1 [VX-11E]	–	–	0.0	-1.6	–
Cc1cc(Nc2cc(N3CCN(C)CC3)nc(Sc3ccc(NC(=O)C4CC4)cc3)n2)[nH]n1 [VX-680 (Tozasertib, MK-0457), Tozasertib]	3.4	0	–	–	–
NC(=O)c1ccc(N(C(N)=O)c2c(F)cccc2F)nc1-c1ccc(F)cc1F [VX-702]	0.6	-0.6	–	–	–
O=c1ncn2nc(Sc3ccc(F)cc3F)ccc2c1-c1c(Cl)cccc1Cl [VX-745]	0.6	1.3	–	–	–
COc1cc2c(Nc3ccc(Br)cc3F)ncnc2cc1OCC1CCN(C)CC1 [Vandetanib (ZD6474), Vandetanib]	0.1	0.1	–	–	–
C[C@@H]1COC(Nc2ccc3ncnc(Nc4ccc(OCc5nccs5)c(Cl)c4)c3c2)=N1 [Varlitinib]	0.9	0.8	–	–	–
Clc1ccc(Nc2nnc(Cc3ccncc3)c3ccccc23)cc1 [Vatalanib (PTK787) 2HCl, Vatalanib]	-0.5	-0.3	–	–	–
CCCS(=O)(=O)Nc1ccc(F)c(C(=O)c2c[nH]c3ncc(-c4ccc(Cl)cc4)cc23)c1F [Vemurafenib (PLX4032, RG7204), Vemurafenib]	1.5	6	–	–	–
CC[C@@H]1C(=O)N(C)c2cnc(Nc3ccc(C(=O)N[C@H]4CC[C@H](N5CCN(CC6CC6)CC5)CC4)cc3OC)nc2N1C(C)C [Volasertib (BI 6727), Volasertib]	0.5	0.3	–	–	–
CCn1c(=O)c(-c2cc[nH]n2)cc2c(C)nc(N)nc21 [Voxtalisib]	–	–	0.2	–	TM Shift LIMK2 (K) (LIMK2KD; [5]): 0.4 K

Molecule	ΔTm at 10 µM (LIMK1KD [1]; [3]) [°C]	ΔTm at 10 µM (LIMK2KD; [4]) [°C]	TM Shift LIMK1 (K) (LIMK1KD [1]; [3])	TM Shift LIMK2 (K) (LIMK2KD; [4])	further results
c1cncc(CN2CCC(n3ncc4c(N5CCOCC5)nc(-c5ccc6[nH]ccc6c5)nc43)CC2)c1 [WAY-600]	–	–	-0.1	-0.2	–
COc1cc2ncnc(Nc3ccc(O)c(Br)c3)c2cc1OC [WHI-P154]	–	–	1.5	-0.2	–
C[C@H](NC(=O)/C(C#N)=C/c1cccc(Br)n1)c1ccccc1 [WP1066]	-0.3	0.4	–	–	–
CNC(=O)Nc1ccc(-c2nc(N3CC4CCC(C3)O4)c3cnn(C4CCC5(CC4)OCCO5)c3n2)cc1 [WYE-125132 (WYE-132)]	–	–	0.5	0.9	–
C=CC(=O)Nc1cccc(Oc2nc(Nc3ccc(N4CCN(C)CC4)cc3)ncc2Cl)c1 [WZ3146]	–	–	1.9	1.5	–
C=CC(=O)Nc1cccc(Oc2nc(Nc3ccc(N4CCN(C)CC4)cc3OC)ncc2Cl)c1 [WZ4002]	1	1.8	–	–	–
CCC(=O)Nc1cccc(Oc2nc(Nc3ccc(N4CCN(C)CC4)cc3OC)ncc2Cl)c1 [WZ4003]	0.4	-0.8	–	–	–
C=CC(=O)Nc1cccc(Sc2nc(Nc3ccc(N4CCN(C)CC4)cc3)ncc2Cl)c1 [WZ8040]	–	–	3.1	5.2	–
COC[C@H]1OC(=O)c2coc3c2[C@@]1(C)C1=C(C3=O)[C@@H]2CCC(=O)[C@@]2(C)C[C@H]1OC(C)=O [Wortmannin]	0.2	0.1	–	–	–
O=C(Nc1ccc(-c2ccnc(Nc3ccc(N4CCOCC4)cc3)n2)cc1)C1CCCN1 (stereo not drawn) [XL019]	4	1.6	–	–	–
COc1ccc(Cl)c(Nc2nc3ccccc3nc2NS(=O)(=O)c2cccc(NC(=O)C(C)(C)N)c2)c1 [XL147]	–	–	-0.1	–	TM Shift LIMK2 (K) (LIMK2KD; [5]): 0.6 K
Cc1c(C(=O)N2CCOc3ccc(-c4ccc(N)nc4)cc3C2)ccc(S(C)(=O)=O)c1F [XL388]	–	–	-1.4	2.7	–
C[C@@H](N)[C@H]1CC[C@H](C(=O)Nc2ccncc2)CC1.Cl.Cl [Y-27632 2HCl]	–	–	-0.7	0.9	–
Nc1ccc(C(=O)Nc2cccc(-c3nc(N4CCOCC4)c4oc5ncccc5c4n3)c2)cn1 [YM201636]	–	–	0.6	3.8	–
Cc1cc(C)nc(NS(=O)(=O)c2ccc(NC(=S)NC(=O)COc3ccc(Br)cc3Cl)cc2)n1 [ZCL278]	–	–	-1.0	1.2	–
CC(C)N(CCC(=O)c1ccc2ccccc2c1)Cc1ccccc1.Cl [ZM 39923 HCl]	–	–	0.2	-1.4	–
COc1cc2ncnc(Nc3ccc(Cl)cc3F)c2cc1OC [ZM 306416]	–	–	0.4	1.8	–
Cc1cc(F)c(Nc2ncnc3cc(OCc4ccccc4)ccc23)cc1O.Cl [ZM 323881 HCl]	–	–	0.0	2.6	–
Cc1ccc(NC(=O)c2cccc(N(C)C)c2)cc1NC(=O)c1ccc(O)cc1 [ZM 336372]	–	–	0.7	0.2	–
COc1cc2c(Nc3ccc(NC(=O)c4ccccc4)cc3)ncnc2cc1OCCCN1CCOCC1 [ZM 447439]	–	–	0.1	0.8	–
FC(F)c1nc2ccccc2n1-c1nc(N2CCOCC2)nc(N2CCOCC2)n1 [ZSTK474]	-1	0	–	–	–
O=P(O)(O)C(O)(Cn1ccnc1)P(=O)(O)O [Zoledronic Acid]	-0.7	1.3	–	–	–
AZ23	–	–	3.6	0.8	–
AZD4547	–	–	-0.1	-0.1	–
CHIR-98014	–	–	–	–	TM Shift LIMK1 (K) (LIMK1KD [1]): 5.0 K; TM Shift LIMK2 (K) (LIMK2KD; 10 µM): 0.0 K
WYE-354	–	–	0.2	4.1	–
